Source: patent US9750789B2, “Use of matrix metalloproteinase inhibitors to treat tuberculosis” (priority 2011, dated 2017)
In brackets after ≈: the same amount, converted by molar mass. Entries after “also recorded” stand apart in the source; their conditions may differ.

Columns and labels:
[1] = MacArthur et al 1978; cited from earlier work
[2] = test system: primary human macrophages; assay: Total protein accumulation in cell culture supernatants (Bradford); conditions: macrophage supernatants, doxycycline groups
[3] = test system: primary human bronchial epithelial cells; assay: Total protein in bronchial epithelial cell culture supernatants (Bradford); conditions: Bradford analysis, data not shown
bioluminescent Mtb [4] = assay: microbe, parasite or virus in culture; format: cell-based, Mycobacterium tuberculosis
bioluminescent Mtb [5] = assay: MIC determination with bioluminescent Mtb; format: cell-based, Mycobacterium tuberculosis
MMP-1 [6] = conditions: Rand et al 2009; cited from earlier work
MMP-1 [7] = assay: MMP-1 secretion by stimulated primary human monocytes; format: cell-based; conditions: Pam3Cys 5 μg/ml, 24 h

Compound: C[C@H]1c2cccc(O)c2C(=O)C2=C(O)[C@]3(O)C(=O)C(C(N)=O)=C(O)[C@@H](N(C)C)[C@@H]3[C@@H](O)[C@@H]21 [Doxycycline, doxycycline]
- peak concentration in serum [1]: 3.2 µg/mL
- protein accumulation in the cell culture supernatants [2]: the same in each group
- total protein in cell culture supernatants [3]: no different between groups
- MBC/MIC ratio (bioluminescent Mtb [4]): 16
- MBC (bioluminescent Mtb [4]; Mycobacterium tuberculosis, 72 h, luminescence monitored over 3 days, read-out: minimum bactericidal concentration (MBC)): 40 µg/mL (≈ 90 µM)
- drop in relative light units (bioluminescent Mtb [5]; 2.5 μg/ml doxycycline, at 2 days): 1 log
- MIC (bioluminescent Mtb [5]; Mycobacterium tuberculosis, bioluminescent Mtb, confirmed by Resazurin, read-out: minimum inhibitory concentration (MIC)): 2.5 µg/mL (≈ 5.63 µM)

Compound: Nc1ccc(C(=O)O)c(O)c1 [P-amino-salicylic acid]
- MMP-1 secretion by Mtb-infected macrophages (MMP-1 [6]): inhibits

Compound: Pam3Cys
- MMP-1 secretion (MMP-1 [7]): increased; also recorded: up-regulated MMP-1 equivalently to live Mtb
